Laboratory results reported in publication PMC8284453 (Antimicrobial Agents and Chemotherapy, 2021).
Converted amounts (≈) assume the structure as drawn. Where two headings read alike, the source gives them in different places.

How the values were obtained:
[1] = tested on: strains of Enterobacterales expressing serine β-lactamases; assay: organism not typed; assay type: cell-based
[2] = tested on: strains utilized in time-kill studies; assay: MIC summary across strains utilized in time-kill studies; assay type: cell-based, E. coli, E. cloacae, K. pneumoniae; details: across all four strains
E. coli 1480076 = assay: Impact of pH and human urine on MIC; assay type: cell-based
Method: (§1) Studies were conducted by IHMA, Schaumberg, IL. […] MICs were determined by broth […] methodology ([30], [31]). […] Antibacterial panels containing 100 μl of antibacterial solution were inoculated with the adjusted inocula using 95-prong inoculator sets. Test panels were read visually after incubation following CLSI guidelines for each organism. MIC values corresponded to the first well with no visible growth.

E. coli ATCC 25922 = assay: Impact of pH and human urine on MIC; assay type: cell-based; details: Escherichia coli, ATCC25922, read-out: Median or modal MIC
Method: as §1

K. pneumoniae 1266420 = assay: Impact of pH and human urine on MIC; assay type: cell-based; details: Klebsiella pneumoniae
Method: as §1

K. pneumoniae 1434760 = assay: Impact of pH and human urine on MIC; assay type: cell-based
Method: as §1

[3] = tested on: K. pneumoniae ATCC 700603; assay: Impact of pH and human urine on MIC; assay type: cell-based; details: Klebsiella pneumoniae, ATCC700603, read-out: Median or modal MIC
Method: as §1

[4] = tested on: K. pneumoniae ATCC BAA-1705; assay: Impact of pH and human urine on MIC; assay type: cell-based; details: Klebsiella pneumoniae, ATCCBAA1705, read-out: Median or modal MIC
Method: as §1

[5] = tested on: K. pneumoniae UNT-023 expressing KPC, TEM-1, and SHV-11; assay: microbe, parasite or virus in culture; assay type: cell-based; details: Klebsiella pneumoniae
[6] = tested on: K. pneumoniae UNT-023 expressing KPC, TEM-1, and SHV-11; assay: animal or person; assay type: in vivo; details: Klebsiella pneumoniae, in Mus musculus, 1 h
[7] = tested on: E. coli NCTC 13353 expressing CTX-M-15; details: approved QC range; ref CLSI AST Subcommittee, February 2021; cited from earlier work
[8] = tested on: K. pneumoniae ATCC BAA-1705 expressing KPC-2, SHV, and TEM; details: approved QC range; ref CLSI AST Subcommittee, February 2021; cited from earlier work
[9] = tested on: K. pneumoniae ATCC BAA-2814 expressing KPC-3, SHV-11, and TEM; details: approved QC range; ref CLSI AST Subcommittee, February 2021; cited from earlier work
[10] = tested on: 1,066 clinical urinary tract infection isolates resistant to both amoxicillin-clavulanic acid and levofloxacin; details: VNRX-5236 fixed at 4 μg/ml in the combination; cited from earlier work
[11] = in vivo, cited from earlier work
[12] = cited from earlier work

## Nc1nc(/C(=C/CC(=O)O)C(=O)N[C@@H]2C(=O)N3C(C(=O)O)=CCS[C@H]23)cs1 [CTB, ceftibuten]
[1]
  MIC50: 0.12 µg/mL (≈ 0.292 µM)
  MIC90: 1 µg/mL (≈ 2.44 µM)
[2]
  MIC range: 16 to 128 µg/mL
E. coli 1480076; Escherichia coli, 1480076, read-out: Median or modal MIC
  MIC: 128 µg/mL (≈ 312 µM)
E. coli 1480076; Escherichia coli, 1480076, Human urine, pH 6, read-out: Median or modal MIC
  MIC: 32 µg/mL (≈ 78 µM)
E. coli 1480076; Escherichia coli, 1480076, Human urine, pH 7.2, read-out: Median or modal MIC
  MIC: 32 µg/mL (≈ 78 µM)
E. coli ATCC 25922; Human urine, pH 6
  MIC: 0.25 µg/mL (≈ 0.609 µM)
E. coli ATCC 25922; Human urine, pH 7.2
  MIC: 0.12 µg/mL (≈ 0.292 µM)
E. coli ATCC 25922; MHII broth
  MIC: 0.25 µg/mL (≈ 0.609 µM)
K. pneumoniae 1266420; Human urine, pH 6, read-out: Median or modal MIC
  MIC: 64 µg/mL (≈ 156 µM)
K. pneumoniae 1266420; Human urine, pH 7.2, read-out: Median or modal MIC
  MIC: 16 µg/mL (≈ 39 µM)
K. pneumoniae 1266420; MHII broth, read-out: Median or modal MIC
  MIC: 32 µg/mL (≈ 78 µM)
K. pneumoniae 1434760; Klebsiella pneumoniae, 1434760, pH 6, read-out: Median or modal MIC
  MIC: > 128 µg/mL
K. pneumoniae 1434760; Klebsiella pneumoniae, 1434760, pH 7.2, read-out: Median or modal MIC
  MIC: 128 µg/mL (≈ 312 µM)
K. pneumoniae 1434760; Klebsiella pneumoniae, 1434760, read-out: Median or modal MIC
  MIC: > 128 µg/mL
[3]; Human urine, pH 6
  MIC: 1 µg/mL (≈ 2.44 µM)
[3]; Human urine, pH 7.2
  MIC: 0.5 µg/mL (≈ 1.22 µM)
[3]; MHII broth
  MIC: 0.5 µg/mL (≈ 1.22 µM)
[4]; Human urine, pH 6
  MIC: 2 µg/mL (≈ 4.87 µM)
[4]; Human urine, pH 7.2
  MIC: 2 µg/mL (≈ 4.87 µM)
[4]; MHII broth
  MIC: 8 µg/mL (≈ 19.5 µM)
[5]
  MIC: 64 µg/mL (≈ 156 µM)
[6]
  ED50: > 128 mg/kg
[7]
  QC range (MIC): 16 to 64 µg/mL
[8]
  QC range (MIC): 4 to 32 µg/mL
[9]
  QC range (MIC): 8 to 32 µg/mL
[10]
  MIC90: > 32 µg/mL
[11]; po
  oral bioavailability: ~65%
[11]
  plasma half-life: ~2.4 h
  renal excretion: ~56%
[12]
  human plasma protein binding: ~60%
